HELM strings list units from the 5' end as sugar, base in round brackets, then linkage (d deoxyribose, r ribose, m 2'-O-methyl, p phosphodiester). Strings are as the collection lists them, not checked against the first reports. ss, as = sense and antisense strand; [lna] = locked nucleic acid (LNA); [hna] = hexitol nucleic acid; [fl2r] = 2'-fluoro
Note: test system not given here.

For this series the following is noted: siRNA.
In turn, “RNA1{r(G)p.r(A)p.r(A)p.r(C)p.r(U)p.r(C)p.r(U)p.r(U)p.r(A)p.r(G)p.r(C)p.r(G)p.r(U)p.r(A)p.r(U)p.r(G)p.r(C)p.r(A)p.r(A)p.d(T)p.d(T)}|RNA2{r(U)p.r(U)p.r(G)p.r(C)p.r(A)p.r(U)p.r(A)p.r(C)p.r(G)p.r(C)p.r(U)p.r(A)p.r(A)p.r(G)p.r(A)p.r(G)p.r(U)p.r(U)p.r(C)p.d(T)p.d(T)}$$$RNA1{StrandType:ss}|RNA2{StrandType:as}$” gave a target mRNA knockdown of 56%.
In the case of “RNA1{r(A)p.r(G)p.r(A)p.r(A)p.r(G)p.m(U)p.r(A)p.r(C)p.r(C)p.r(A)p.r(G)p.r(G)p.r(A)p.r(G)p.r(G)p.r(C)p.r(G)p.r(U)p.r(U)p.r(T)p.r(T)}|RNA2{r(A)p.r(A)p.r(C)p.r(G)p.r(C)p.r(C)p.r(U)p.r(C)p.r(C)p.r(U)p.r(G)p.r(G)p.m(U)p.r(A)p.r(C)p.r(U)p.r(U)p.r(C)p.r(U)p.r(T)p.r(T)}$$$RNA1{StrandType:ss}|RNA2{StrandType:as}$”, the target mRNA knockdown is 69%.
As for “RNA1{r(G)p.[hna](A)p.r(C)p.r(G)p.r(U)p.r(A)p.r(A)p.[hna](A)p.r(C)p.r(G)p.r(G)p.r(C)p.r(C)p.[hna](A)p.r(C)p.r(A)p.[hna](A)p.r(G)p.r(U)p.r(U)p.r(C)}|RNA2{r(A)p.r(C)p.[lna](T)p.r(U)p.r(G)p.[lna](T)p.r(G)p.r(G)p.r(C)p.r(C)p.r(G)p.r(U)p.r(U)p.[lna](T)p.r(A)p.r(C)p.r(G)p.[lna](T)p.r(C)p.[lna](G)p.[lna](C)}$$$RNA1{StrandType:ss}|RNA2{StrandType:as}$”, the target mRNA knockdown came to 3.6%.
On to “RNA1{r(U)p.r(C)p.r(U)p.r(C)p.r(G)p.m(U)p.m(A)p.r(A)p.r(G)p.r(G)p.r(A)p.r(C)p.r(G)p.r(A)p.m(A)p.r(A)p.m(C)p.r(G)p.r(A)p.r(T)p.r(T)}|RNA2{r(U)p.r(C)p.r(G)p.r(U)p.r(U)p.r(U)p.r(C)p.r(G)p.r(U)p.r(C)p.r(C)p.r(U)p.m(U)p.r(A)p.r(C)p.r(G)p.r(A)p.r(G)p.r(A)p.r(T)p.r(T)}$$$RNA1{StrandType:ss}|RNA2{StrandType:as}$”, for which the target mRNA knockdown was 52%.
“RNA1{m(A)p.r(A)p.m(A)p.r(C)p.m(C)p.r(U)p.m(C)p.r(A)p.m(G)p.r(C)p.m(C)p.r(C)p.m(U)p.r(A)p.m(A)p.r(C)p.m(G)p.r(G)p.m(U)p.r(T)p.r(T)}|RNA2{r(A)p.m(C)p.m(C)p.r(G)p.r(U)p.r(U)p.r(A)p.r(G)p.r(G)p.r(G)p.m(C)p.r(U)p.r(G)p.r(A)p.r(G)p.r(G)p.r(U)p.r(U)p.r(U)p.r(T)p.r(T)}$$$RNA1{StrandType:ss}|RNA2{StrandType:as}$”: the target mRNA knockdown is 28%.
In turn, “RNA1{r(U)p.m(U)p.r(A)p.r(A)p.r(G)p.r(G)p.r(A)p.r(G)p.r(A)p.r(A)p.r(G)p.r(C)p.m(U)p.m(G)p.r(A)p.r(C)p.r(G)p.r(G)p.r(C)p.r(T)p.r(T)}|RNA2{r(G)p.r(C)p.r(C)p.r(G)p.r(U)p.m(C)p.r(A)p.r(G)p.r(C)p.r(U)p.r(U)p.r(C)p.r(U)p.r(C)p.r(C)p.r(U)p.m(U)p.r(A)p.r(A)p.r(T)p.r(T)}$$$RNA1{StrandType:ss}|RNA2{StrandType:as}$” returned a target mRNA knockdown of 82%.
Consider “RNA1{m(A)p.r(G)p.m(C)p.r(C)p.m(A)p.r(C)p.m(A)p.r(U)p.m(U)p.r(U)p.m(C)p.r(U)p.m(A)p.r(G)p.m(G)p.r(A)p.m(G)p.r(A)p.r(U)p.r(T)p.r(T)}|RNA2{r(A)p.r(U)p.r(C)p.r(U)p.r(C)p.r(C)p.r(U)p.r(A)p.r(G)p.r(A)p.r(A)p.r(A)p.r(U)p.r(G)p.r(U)p.r(G)p.r(G)p.r(C)p.r(U)p.r(T)p.r(T)}$$$RNA1{StrandType:ss}|RNA2{StrandType:as}$”, for which the target mRNA knockdown worked out at 19%.
With “RNA1{r(A)p.m(A)p.r(G)p.m(G)p.r(A)p.m(G)p.r(A)p.m(U)p.r(C)p.m(A)p.r(A)p.m(C)p.r(A)p.m(U)p.r(U)p.m(U)p.r(U)p.m(C)p.r(A)p.r(T)p.r(T)}|RNA2{m(U)p.r(G)p.m(A)p.r(A)p.m(A)p.r(A)p.m(U)p.r(G)p.m(U)p.r(U)p.m(G)p.r(A)p.m(U)p.r(C)p.m(U)p.r(C)p.m(C)p.r(U)p.m(U)p.r(T)p.r(T)}$$$RNA1{StrandType:ss}|RNA2{StrandType:as}$”, the target mRNA knockdown is 83%.
With “RNA1{[fl2r](A)p.r(G)p.[fl2r](G)p.r(A)p.[fl2r](G)p.r(A)p.[fl2r](C)p.r(C)p.[fl2r](G)p.r(U)p.[fl2r](G)p.r(A)p.[fl2r](C)p.r(A)p.[fl2r](U)p.r(U)p.[fl2r](U)p.r(C)p.[fl2r](G)p.r(T)p.r(T)}|RNA2{r(C)p.[fl2r](G)p.r(A)p.r(A)p.r(A)p.r(U)p.[fl2r](G)p.r(U)p.r(C)p.r(A)p.r(C)p.[fl2r](G)p.[fl2r](G)p.r(U)p.r(C)p.r(U)p.r(C)p.r(C)p.r(U)p.r(T)p.r(T)}$$$RNA1{StrandType:ss}|RNA2{StrandType:as}$”, the target mRNA knockdown is 33%.
On to “RNA1{[fl2r](A)p.r(C)p.[fl2r](G)p.r(G)p.[fl2r](C)p.r(U)p.[fl2r](C)p.r(G)p.[fl2r](C)p.r(U)p.[fl2r](A)p.r(C)p.[fl2r](C)p.r(C)p.[fl2r](U)p.r(C)p.[fl2r](G)p.r(A)p.r(C)p.r(T)p.r(T)}|RNA2{r(G)p.r(U)p.r(C)p.r(G)p.r(A)p.r(G)p.r(G)p.r(G)p.r(U)p.r(A)p.r(G)p.r(C)p.r(G)p.r(A)p.r(G)p.r(C)p.r(C)p.r(G)p.r(U)p.r(T)p.r(T)}$$$RNA1{StrandType:ss}|RNA2{StrandType:as}$”, for which the target mRNA knockdown stood at 72%.
The substance “RNA1{r(A)p.r(A)p.r(G)p.r(G)p.r(A)p.r(C)p.r(C)p.m(U)p.r(A)p.r(G)p.r(A)p.r(G)p.r(G)p.r(A)p.r(G)p.r(U)p.r(C)p.r(A)p.r(C)p.r(T)p.r(T)}|RNA2{r(G)p.m(U)p.r(G)p.r(A)p.r(C)p.r(U)p.r(C)p.r(C)p.r(U)p.r(C)p.r(U)p.r(A)p.r(G)p.r(G)p.r(U)p.r(C)p.r(C)p.r(U)p.r(U)p.r(T)p.r(T)}$$$RNA1{StrandType:ss}|RNA2{StrandType:as}$” displayed a target mRNA knockdown of 80%.
In turn, “RNA1{r(G)p.r(G)p.r(G)p.r(A)p.r(G)p.r(G)p.r(U)p.r(C)p.r(U)p.r(U)p.r(A)p.r(G)p.r(A)p.r(A)p.r(A)p.r(A)p.r(C)p.r(A)p.r(C)p.r(T)p.r(T)}|RNA2{r(G)p.r(U)p.r(G)p.r(U)p.r(U)p.r(U)p.r(U)p.r(C)p.m(U)p.r(A)p.r(A)p.r(G)p.r(A)p.r(C)p.r(C)p.r(U)p.r(C)p.r(C)p.r(C)p.r(T)p.r(T)}$$$RNA1{StrandType:ss}|RNA2{StrandType:as}$” displayed a target mRNA knockdown of 82%.
For the substance “RNA1{r(C)p.r(U)p.r(C)p.r(C)p.r(G)p.r(A)p.r(C)p.r(A)p.r(G)p.r(A)p.m(U)p.r(G)p.r(A)p.r(A)p.r(G)p.r(G)p.r(A)p.r(A)p.r(A)p.r(T)p.r(T)}|RNA2{r(U)p.r(U)p.r(U)p.r(C)p.r(C)p.r(U)p.r(U)p.r(C)p.r(A)p.r(U)p.r(C)p.m(U)p.r(G)p.r(U)p.r(C)p.r(G)p.r(G)p.r(A)p.r(G)p.r(T)p.r(T)}$$$RNA1{StrandType:ss}|RNA2{StrandType:as}$”, the target mRNA knockdown was determined as 72%.
“RNA1{r(G)p.r(A)p.r(C)p.r(G)p.r(U)p.r(A)p.r(A)p.r(A)p.r(C)p.r(G)p.r(G)p.r(C)p.r(C)p.r(A)p.r(C)p.r(A)p.r(A)p.r(G)p.r(U)p.[lna](T)p.[lna](C)}|RNA2{r(A)p.r(C)p.r(U)p.r(U)p.r(G)p.r(U)p.r(G)p.r(G)p.r(C)p.r(C)p.r(G)p.r(U)p.r(U)p.r(U)p.r(A)p.r(C)p.r(G)p.r(U)p.r(C)p.r(G)p.r(C)}$$$RNA1{StrandType:ss}|RNA2{StrandType:as}$” returned a target mRNA knockdown of 87.4%.
With “RNA1{r(G)p.r(G)p.r(C)p.r(C)p.r(U)p.r(U)p.r(U)p.r(C)p.r(U)p.r(C)p.r(U)p.r(C)p.r(U)p.r(A)p.r(G)p.r(A)p.r(U)p.r(A)p.r(U)p.r(T)p.r(T)}|RNA2{r(A)p.m(U)p.r(A)p.r(U)p.r(C)p.m(U)p.r(A)p.r(G)p.r(A)p.r(G)p.r(A)p.r(G)p.r(A)p.r(A)p.r(A)p.r(G)p.r(G)p.r(C)p.r(C)p.r(T)p.r(T)}$$$RNA1{StrandType:ss}|RNA2{StrandType:as}$” the figure was 90%; with “RNA1{r(G)p.r(G)p.r(A)p.r(A)p.r(G)p.r(U)p.r(C)p.m(C)p.m(A)p.r(C)p.r(C)p.m(U)p.m(U)p.r(C)p.r(U)p.r(C)p.r(C)p.r(G)p.r(A)p.r(T)p.r(T)}|RNA2{r(U)p.r(C)p.r(G)p.r(G)p.r(A)p.r(G)p.r(A)p.r(A)p.r(G)p.r(G)p.m(U)p.r(G)p.r(G)p.r(A)p.r(C)p.r(U)p.r(U)p.r(C)p.r(C)p.r(T)p.r(T)}$$$RNA1{StrandType:ss}|RNA2{StrandType:as}$”, 51%.
With “RNA1{m(A)p.r(G)p.r(C)p.r(U)p.r(C)p.r(U)p.r(U)p.r(U)p.r(G)p.r(U)p.r(C)p.m(A)p.r(C)p.r(C)p.r(U)p.r(C)p.r(U)p.r(C)p.r(U)p.r(T)p.r(T)}|RNA2{m(A)p.r(G)p.m(A)p.r(G)p.m(A)p.r(G)p.m(G)p.r(U)p.m(G)p.r(A)p.m(C)p.r(A)p.m(A)p.r(A)p.m(G)p.r(A)p.m(G)p.r(C)p.m(U)p.r(T)p.r(T)}$$$RNA1{StrandType:ss}|RNA2{StrandType:as}$” the figure was 19%.
As for “RNA1{r(A)p.r(G)p.r(U)p.r(U)p.r(U)p.r(C)p.[fl2r](U)p.r(A)p.r(G)p.r(G)p.r(G)p.r(C)p.r(C)p.r(G)p.[fl2r](U)p.r(G)p.r(G)p.r(C)p.r(C)p.r(T)p.r(T)}|RNA2{r(G)p.r(G)p.r(C)p.[fl2r](C)p.r(A)p.r(C)p.r(G)p.[fl2r](G)p.r(C)p.r(C)p.r(C)p.[fl2r](U)p.r(A)p.r(G)p.r(A)p.r(A)p.r(A)p.r(C)p.r(U)p.r(T)p.r(T)}$$$RNA1{StrandType:ss}|RNA2{StrandType:as}$”, the target mRNA knockdown is 85%.
Take “RNA1{r(G)p.r(A)p.m(U)p.r(A)p.r(C)p.r(U)p.r(U)p.r(C)p.r(U)p.r(G)p.r(G)p.r(U)p.r(U)p.r(C)p.r(C)p.r(C)p.r(U)p.r(C)p.r(C)p.r(T)p.r(T)}|RNA2{r(G)p.r(G)p.r(A)p.r(G)p.r(G)p.r(G)p.r(A)p.r(A)p.r(C)p.r(C)p.r(A)p.r(G)p.r(A)p.r(A)p.r(G)p.m(U)p.r(A)p.r(U)p.r(C)p.r(T)p.r(T)}$$$RNA1{StrandType:ss}|RNA2{StrandType:as}$”: the target mRNA knockdown was determined as 46%.
With “RNA1{[fl2r](G)p.r(A)p.[fl2r](G)p.r(U)p.[fl2r](A)p.r(U)p.[fl2r](U)p.r(U)p.[fl2r](C)p.r(C)p.[fl2r](G)p.r(C)p.[fl2r](U)p.r(G)p.[fl2r](G)p.r(A)p.[fl2r](A)p.r(C)p.[fl2r](U)p.r(T)p.r(T)}|RNA2{r(A)p.r(G)p.r(U)p.r(U)p.r(C)p.r(C)p.r(A)p.r(G)p.r(C)p.r(G)p.r(G)p.r(A)p.r(A)p.r(A)p.r(U)p.r(A)p.r(C)p.r(U)p.r(C)p.r(T)p.r(T)}$$$RNA1{StrandType:ss}|RNA2{StrandType:as}$” the figure was 21%.

Source of the values: the OligoGym collection.
